Experimental findings from patent US7517889B2, “2,6-substituted-4-monosubstitutedamino-pyrimidine as prostaglandin D2 receptor antagonists” (Aventis Pharmaceuticals, Inc., priority 2004, dated 2009) are described below.

The structures appear in SMILES notation. Counter-ions that a name gives are not always drawn.

This assay concerns the target T1, DP receptor (Homo sapiens, UniProt Q13258).
T1 construct: the human cell line LS174T, which expresses the endogenous DP receptor; endogenous in cells; host or cells: LS174T human cell line
T1 sequence (Q13258 1-359): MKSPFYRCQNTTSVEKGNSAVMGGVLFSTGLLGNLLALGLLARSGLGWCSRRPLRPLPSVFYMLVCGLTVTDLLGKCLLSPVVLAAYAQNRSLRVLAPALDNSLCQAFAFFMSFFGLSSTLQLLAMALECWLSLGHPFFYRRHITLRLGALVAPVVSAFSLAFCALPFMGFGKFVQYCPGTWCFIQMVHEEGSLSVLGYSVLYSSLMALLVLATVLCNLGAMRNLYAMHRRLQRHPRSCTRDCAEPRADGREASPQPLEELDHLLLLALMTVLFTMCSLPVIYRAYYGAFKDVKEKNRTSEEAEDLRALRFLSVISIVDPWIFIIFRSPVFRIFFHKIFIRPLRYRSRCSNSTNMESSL
The assay is described as follows: SPA cAMP assay in human LS174 T cells (human DP functional assay). The format is cell-based. The following applies: inhibition of PGD2 (15 nM final) stimulated cAMP, LS174T cells expressing endogenous DP receptor. The method, then: The inhibitory effects of the compounds according to the invention are assessed in a human DP functional assay. A cAMP assay is employed using the human cell line LS174T, which expresses the endogenous DP receptor.
Protocol for SPA cAMP Assay in Human LS174 T Cells
• 1) Add equal volumes of tracer, antiserum and SPA anti-rabbit reagent to a bottle, ensuring that a sufficient volume of this mixture is prepared for the desired number of wells (150 μL/well). • 2) Mix thoroughly. • 3) This immunoreagent solution should be freshly prepared before each assay and not re-used.
Add 50 μL of […] IBMX into 100 mL PBS to make a final concentration of 100 μM and sonicate at 30° C. for 20 minutes.
Before each assay, it is freshly prepared. Add 3 μL of 10 mM stock solution to 20 mL DMSO, mix it thoroughly, and transfer 10 mL to 40 mL PBS.
Compound dilution is carried out in Biomex 2000 (Beckman) using Method 1_cAMP DP 11 points.
5 μL of each compound from the 10 mM stock compound plates is transferred to the wells of a 96-well plate respectively as below.
Fill the plate with 45 μL of DMSO except column 7 is filled with 28 μL DMSO. Pipette column 1 thoroughly, and transfer 12 μL into column 7 parallel. Perform 1:10 serial dilution from column 1 to column 6 and from column 7 to column 11 by transfer 5 μL to 45 μL DMSO to make following concentrations:
Fill a new 96-well plate with 247.5 μL of compound dilution buffer. Transfer 2.5 μL of serially diluted compounds from above plate to the new plate (1:100 dilution) as following:
Cell Growth • 1. […] Remove growth medium from cells. Cells in T165 flask are washed twice with 4 mL Trypsin followed by incubation at 37° C. and 5% CO2 for 3 minutes. • 4. Add 10 mL of medium and pipette thoroughly to separate the cells and count the cells. • 5. […] Assay Procedure Day 1 • Seed 45,000 cells/well in 200 μL medium in 96-well plates. Incubate the cell plate at 37° C., 5% CO2 and 95% humidity overnight. Day 2 • 1. Perform compound dilution. • 2. Prepare assay buffer, lysis buffer 1 & 2, PGD2 and standard. • 3. Aspirate media from the cells and add 100 μL of compound solution using Zymark Sciclone-ALH/FD protocol cAMP DP. • 4. Incubate the cells at 37° C., 5% CO2 and 95% humidity for 15 minutes. • 5. […] Aspirate media from the cells and add 50 μL of lysis buffer 1 using Zymark protocol cAMP DP lysis, and incubate at room temperature with shaking for 30 minutes. • 7. Add 150 μL immunoreagent to all wells (a total volume of 200 μL/well). • 8. Seal the plates and shake for 2 minutes, put into the chamber of the Wallac microtitre plate μ scintillation counter for 16 hours. […] Data Processing Set up standard curve of cAMP versus CPM.
The cAMP concentrations (pmol/mL) of unknown samples are calculated from a standard curve of cAMP versus CPM. % inhibition is calculated using the following formula: […]
For orientation: Cyclic AMP is a second messenger, typically raised through Gs and lowered through Gi signalling.
Consider `COc1ccc(CCNc2cc(-c3cccc(S(N)(=O)=O)c3)nc(OC)n2)cc1` [Example 3, 3-{2-Methoxy-6-[2-(4-methoxy-phenyl)-ethylamino]-pyrimidin-4-yl}-benzenesulfonamide], for which the IC50 amounted to 2.9 nM.

`CCNS(=O)(=O)c1cccc(-c2cc(NCCc3ccc(OC)cc3)nc(OC)n2)c1` [Example 4(b), N-Ethyl-3-{2-methoxy-6-[2-(4-methoxy-phenyl)-ethylamino]-pyrimidin-4-yl}-benzenesulfonamide] yielded an IC50 of 6.6 nM.

For `COc1nc(NCCc2ccc(OC(F)(F)F)cc2)cc(-c2cccc(N)c2)n1` [Example 5, [6-(3-amino-phenyl)-2-methoxy-pyrimidin-4-yl]-[2-(4-trifluoromethoxy-phenyl)-ethyl]-amine], half-maximal inhibition (IC50) required 9.6 nM.

`COc1nc(NCCc2ccc(OC(F)(F)F)cc2)cc(-c2cccc(NC(C)=O)c2)n1` [Example 6(a), N-(3-{2-Methoxy-6-[2-(4-trifluoromethoxy-phenyl)-ethylamino]-pyrimidin-4-yl}phenyl)-acetamide] had an IC50 of 4.8 nM.

`COc1nc(NCCc2ccc(F)cc2F)cc(-c2cccc(C(=O)O)c2)n1` [Example 7, 3-{6-[2-(2,4-Difluoro-phenyl)-ethylamino]-2-methoxy-pyrimidin-4-yl}-benzoic acid] registered an IC50 of 0.8 nM.

The compound `COc1ccc(CCNc2cc(-c3ccc(C(=O)O)s3)nc(OC)n2)cc1` [Example 8(a), 5-{2-Methoxy-6-[2-(4-methoxy-phenyl)-ethylamino]-pyrimidin-4-yl}-thiophene-2-carboxylic acid trifluoroacetate] came in with an IC50 of 0.33 nM.

Turning to `COc1ccc(CCNc2cc(-c3ccc(C=O)s3)nc(OC)n2)cc1` [Example 8(b), 5-{2-methoxy-6-[2-(4-methoxy-phenyl)-ethylamino]-pyrimidin-4-yl}-thiophene-2-carbaldehyde], the IC50 was determined as 0.6 nM.

In turn, `COc1ccc(CCNc2cc(-c3c(C)noc3C)nc(OC)n2)cc1` [Example 8(d), [6-(3,5-Dimethyl-isoxazol-4-yl)-2-methoxy-pyrimidin-4-yl]-[2-(4-methoxy-phenyl)-ethyl]-amine] showed an IC50 of 1.9 nM.

`COc1ccc(CCNc2cc(-c3ccc(C)s3)nc(OC)n2)cc1` [Example 8(e), [2-Methoxy-6-(5-methyl-thiophen-2-yl)-pyrimidin-4-yl]-[2-(4-methoxy-phenyl)-ethyl]-amine] displayed an IC50 of 8.2 nM.

In turn, `COc1ccc(CCNc2cc(-c3cn[nH]c3)nc(OC)n2)cc1` [Example 8(f), [2-(4-Methoxy-phenyl)-ethyl]-[2-methoxy-6-(1H-pyrazol-4-yl)-pyrimidin-4-yl]-amine] had an IC50 of 26 nM.

As for `COc1ccc(CCNc2cc(-c3cccc4cnccc34)nc(OC)n2)cc1` [Example 8(g), (6-Isoquinolin-5-yl-2-methoxy-pyrimidin-4-yl)-[2-(4-methoxy-phenyl)-ethyl]-amine], the IC50 turned out to be 64 nM.

`COc1ccc(CCNc2cc(-c3ccc(CO)s3)nc(OC)n2)cc1` [Example 9(a), (5-{2-Methoxy-6-[2-(4-methoxy-phenyl)-ethylamino]-pyrimidin-4-yl}-thiophen-2-yl)-methanol] returned an IC50 of 0.55 nM.

In turn, `COc1ccc(CCNc2cc(-c3ccsc3CO)nc(OC)n2)cc1` [Example 9(b), (3-{2-Methoxy-6-[2-(4-methoxy-phenyl)-ethylamino]-pyrimidin-4-yl}-thiophen-2-yl)-methanol] yielded an IC50 of 1.7 nM.

On to `COc1nc(NCCc2c(F)cccc2Cl)cc(-c2cccc(CO)c2)n1` [Example 9(d), (3-{6-[2-(2-chloro-6-fluoro-phenyl)-ethylamino]-2-methoxy-pyrimidin-4-yl}-phenyl)-methanol], for which the IC50 was 2.4 nM.

In turn, `COc1ccc(CCNc2cc(-c3ccc(N(C)C)cc3)nc(OC)n2)cc1` [Example 10(I)] displayed an IC50 of 42 nM.

`COc1ccc(CCNc2cc(-c3ccc4ncccc4c3)nc(OC)n2)cc1` [Example 10(a), [2-(4-Methoxy-phenyl)-ethyl]-(2-methoxy-6-quinolin-6-yl-pyrimidin-4-yl)-amine] came in with an IC50 of 0.6 nM.

With `COc1ccc(CCNc2cc(-c3cnc4ccccc4c3)nc(OC)n2)cc1` [Example 10(b), [2-(4-Methoxy-phenyl)-ethyl]-(2-methoxy-6-quinolin-3-yl-pyrimidin-4-yl)-amine], 0.7 nM corresponded to half-maximal inhibition (IC50).

`COc1ccc(CCNc2cc(-c3ccc4[nH]ccc4c3)nc(OC)n2)cc1` [Example 10(c), [6-(1H-Indol-5-yl)-2-methoxy-pyrimidin-4-yl]-[2-(4-methoxy-phenyl)-ethyl]-amine] returned an IC50 of 0.7 nM.

Consider `COc1ccc(CCNc2cc(-c3ccccc3NS(C)(=O)=O)nc(OC)n2)cc1` [Example 10(d), N-(2-{2-Methoxy-6-[2-(4-methoxy-phenyl)-ethylamino]-pyrimidin-4-yl}-phenyl)-methanesulfonamide], for which half-maximal inhibition (IC50) required 2 nM.

With `COc1ccc(CCNc2cc(-c3ccc(C(N)=O)cc3)nc(OC)n2)cc1` [Example 10(e), 4-{2-Methoxy-6-[2-(4-methoxy-phenyl)-ethylamino]-pyrimidin-4-yl}-benzamide], 2.3 nM corresponded to half-maximal inhibition (IC50).

Consider `COc1ccc(CCNc2cc(-c3cc4ccccc4s3)nc(OC)n2)cc1` [Example 10(g), (6-Benzo[b]thiophen-2-yl-2-methoxy-pyrimidin-4-yl)-[2-(4-methoxy-phenyl)-ethyl]-amine], for which the IC50 came out at 5.1 nM.

In turn, `COc1ccc(CCNc2cc(-c3ccc(C(C)=O)cc3)nc(OC)n2)cc1` [Example 10(h), 1-(4-{2-Methoxy-6-[2-(4-methoxy-phenyl)-ethylamino]-pyrimidin-4-yl}-phenyl)-ethanone] gave an IC50 of 6.3 nM.

As for `COc1ccc(CCNc2cc(-c3cccc(S(C)(=O)=O)c3)nc(OC)n2)cc1` [Example 10(i)], the IC50 stood at 7.3 nM.

Turning to `COc1ccc(CCNc2cc(-c3ccc4c(c3)CCO4)nc(OC)n2)cc1` [Example 10(j), [6-(2,3-Dihydro-benzofuran-5-yl)-2-methoxy-pyrimidin-4-yl]-[2-(4-methoxy-phenyl)-ethyl]-amine], 13 nM corresponded to half-maximal inhibition (IC50).

`COc1ccc(CCNc2cc(-c3ccc(N4CCOCC4)cc3)nc(OC)n2)cc1` [Example 10(k), [2-Methoxy-6-(4-morpholin-4-yl-phenyl)-pyrimidin-4-yl]-[2-(4-methoxy-phenyl)-ethyl]-amine] registered an IC50 of 13 nM.

In the case of `COc1ccc(CCNc2cc(-c3ccc(-c4cnco4)s3)nc(OC)n2)cc1` [Example 11(a), [2-Methoxy-6-(5-oxazol-5-yl-thiophen-2-yl)-pyrimidin-4-yl]-[2-(4-methoxy-phenyl)-ethyl]-amine], half-maximal inhibition (IC50) required 2.3 nM.

As to `COc1ccc(CCNc2cc(-c3ccc(C(F)F)s3)nc(OC)n2)cc1` [Example 12, [6-(5-Difluoromethyl-thiophen-2-yl)-2-methoxy-pyrimidin-4-yl]-[2-(4-methoxy-phenyl)-ethyl]-amine], the IC50 was 11 nM.

In turn, `COc1ccc(CCNc2cc(-c3ccc(CN4CCCC4)s3)nc(OC)n2)cc1` [Example 13(a), [2-(4-Methoxy-phenyl)-ethyl]-[2-methoxy-6-(5-pyrrolidin-1-ylmethyl-thiophen-2-yl)-pyrimidin-4-yl]-amine] displayed an IC50 of 44 nM.

Regarding `COc1ccc(CCNc2cc(-c3cccc(CNCCc4ccc(O)cc4)c3)nc(OC)n2)cc1` [Example 13(c), 4-[2-(3-{2-Methoxy-6-[2-(4-methoxy-phenyl)-ethylamino]-pyrimidin-4-yl}-benzylamino)-ethyl]-phenol hydrochloride], inhibition was half-maximal at 10 nM (IC50).

Usually IC50 stands for the concentration at which inhibition is half-maximal. High values mean lower potency, low ones higher potency.
